Where a name gives a salt, the structure may show the parent alone. Read-outs that look alike come from different tables or passages of the source.
What was measured:
[1] = biological target: T1, LIMK1KD (Homo sapiens, UniProt P53667); test: Differential (dynamic) scanning fluorimetry (DSF) assay, LIMK1KD; assay type: binding; details: 2 µM LIMK1KD, compound 10 µM, single shot; for ΔTm at 10 µM: read-out: TM Shift LIMK1 (K)
T1 construct: His6 (N, cleaved yes); made in house; host or cells: baculovirus; Sf9 for virus, TriEx insect cells for expression
T1 sequence (P53667 330-637): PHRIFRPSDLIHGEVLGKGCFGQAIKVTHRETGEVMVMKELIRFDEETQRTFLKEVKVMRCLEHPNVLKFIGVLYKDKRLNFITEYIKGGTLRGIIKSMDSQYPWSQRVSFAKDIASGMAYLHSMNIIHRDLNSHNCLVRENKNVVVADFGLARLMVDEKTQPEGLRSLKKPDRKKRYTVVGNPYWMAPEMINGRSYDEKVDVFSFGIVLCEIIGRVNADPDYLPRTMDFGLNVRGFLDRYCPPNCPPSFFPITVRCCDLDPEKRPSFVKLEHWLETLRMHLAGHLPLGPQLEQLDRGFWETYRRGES

[2] = biological target: T2, LIMK2KD (Homo sapiens, UniProt P53671); test: Differential (dynamic) scanning fluorimetry (DSF) assay, LIMK2KD; assay type: binding
T2 construct: The cDNA coding for LIMK2 residues 330 to 632 was PCR amplified; His6 (N, cleaved yes); made in house; host or cells: baculovirus; Sf9 for virus, TriEx insect cells for expression
T2 sequence (P53671 330-632): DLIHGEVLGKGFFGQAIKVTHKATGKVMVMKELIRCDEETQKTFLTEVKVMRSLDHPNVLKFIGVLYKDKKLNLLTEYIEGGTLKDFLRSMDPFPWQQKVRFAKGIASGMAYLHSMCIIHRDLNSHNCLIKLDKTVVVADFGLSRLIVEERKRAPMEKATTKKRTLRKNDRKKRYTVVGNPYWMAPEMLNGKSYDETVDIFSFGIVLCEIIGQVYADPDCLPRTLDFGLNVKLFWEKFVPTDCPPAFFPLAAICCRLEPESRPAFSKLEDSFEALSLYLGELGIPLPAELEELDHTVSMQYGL

[3] = LIMK2KD, compound 10 µM, single shot, read-out: TM Shift LIMK2 (K)
[4] = LIMK2KD, compound 10 µM, single shot
[5] = LIMK2KD, compound 10 µM, single shot, 10 µM

| SMILES | ΔTm at 10 µM [1] [°C] | ΔTm at 10 µM [2, 3] [°C] | TM Shift LIMK1 (K) [1] [K] | TM Shift LIMK2 (K) [2, 4] [K] | further results |
| --- | --- | --- | --- | --- | --- |
| Oc1ccc(Nc2nc(-c3ccc(Cl)cc3)cs2)cc1 [SKI II] | – | – | -0.4 | 1.4 | – |
| CC(C)(C)c1cnc(CSc2cnc(NC(=O)C3CCNCC3)s2)o1 [SNS-032 (BMS-387032)] | 0.1 | -0.3 | – | – | – |
| O=C(Nc1cccc(Cl)c1)Nc1ncc(CCNc2ncnc3ccsc23)s1 [SNS-314 Mesylate] | -0.5 | 0.8 | – | – | – |
| COc1c(C)c(C(=O)c2ccc(N)c(C(=O)[O-])c2)n2ccccc12.[Na+] [SSR128129E] | – | – | -0.6 | 2.4 | – |
| CN1CCN(CCOc2cc(OC3CCOCC3)c3c(Nc4c(Cl)ccc5c4OCO5)ncnc3c2)CC1 [Saracatinib (AZD0530), Saracatinib] | 1.2 | 0.8 | – | – | – |
| CC[C@H](CO)Nc1nc(NCc2ccccc2)c2ncn(C(C)C)c2n1 [Seliciclib] | – | – | 0.1 | – | TM Shift LIMK1 (K) ([1]; listed as Roscovitine (Seliciclib,CYC202)): -0.4 K; TM Shift LIMK2 (K) [2, 5]: 0.0 K; TM Shift LIMK2 (K) ([2]; LIMK2KD, compound 10 µM, single shot, listed as Roscovitine (Seliciclib,CYC202), 10 µM): -1.3 K |
| Cn1cnc2c(F)c(Nc3ccc(Br)cc3Cl)c(C(=O)NOCCO)cc21 [Selumetinib (AZD6244), Selumetinib] | 0.1 | 0.6 | – | – | – |
| O=C1c2ccc(Nc3ccc(F)cc3F)cc2CCc2ccc(OC[C@H](O)CO)cc21 [Skepinone-L] | -0.5 | -0.6 | – | – | – |
| C=CCN(/C=C1/C(=O)O[C@H](COC)[C@@]2(C)C1=C(O)C(=O)C1=C2[C@H](OC(C)=O)C[C@]2(C)C(=O)CC[C@@H]12)CC=C [Sonolisib] | 0.7 | 0.6 | – | – | – |
| CNC(=O)c1cc(Oc2ccc(NC(=O)Nc3ccc(Cl)c(C(F)(F)F)c3)cc2)ccn1 [Sorafenib Tosylate] | – | – | 1.7 | – | ΔTm at 10 µM ([2]; read-out: TM Shift LIMK2 (K), LIMK2KD, compound 10 µM, single shot): 1.5 °C |
| CN1CCN(c2nc(C3=C(c4c[nH]c5ccccc45)C(=O)NC3=O)c3ccccc3n2)CC1 [Sotrastaurin] | 0.6 | 1.2 | – | – | – |
| CN[C@@H]1C[C@H]2O[C@@](C)([C@@H]1OC)n1c3ccccc3c3c4c(c5c6ccccc6n2c5c31)C(=O)NC4 [Staurosporine] | 5.1 | – | – | – | ΔTm at 10 µM ([2]; read-out: TM Shift LIMK2 (K)): 3.3 °C |
| CCN(CC)CCNC(=O)c1c(C)[nH]c(/C=C2\C(=O)Nc3ccc(F)cc32)c1C [Sunitinib Malate] | – | – | 1.6 | – | TM Shift LIMK2 (K) [2, 5]: 0.5 K |
| CCN(CC)CCNC(=O)c1c(C)[nH]c(/C=C2\C(=O)Nc3ccc(F)cc32)c1C [Sunitinib] | 1.8 | – | – | – | TM Shift LIMK2 (K) [2, 5]: -0.1 K |
| CNC(=O)c1ccccc1Nc1nc(Nc2ccc(N3CCOCC3)cc2OC)ncc1Cl [TAE226 (NVP-TAE226)] | – | – | 1.1 | 3.3 | – |
| COc1ccc(C(=O)Nc2sc3c(c2C(N)=O)CCCC3)cc1OC [TCS 359] | – | – | 1.3 | 1.1 | – |
| Nc1nc(N)c2nc(-c3cccc(O)c3)c(-c3cccc(O)c3)nc2n1 [TG100-115] | – | – | 1.3 | 2.4 | – |
| Cc1cnc(Nc2ccc(OCCN3CCCC3)cc2)nc1Nc1cccc(S(=O)(=O)NC(C)(C)C)c1 [TG101348 (SAR302503)] | – | – | 2.0 | – | TM Shift LIMK2 (K) [2, 5]: 0.7 K |
| NC(=O)Nc1sc(-c2ccc(F)cc2)cc1C(N)=O [TPCA-1] | – | – | 2.8 | 3.6 | – |

| SMILES | ΔTm at 10 µM [1] [°C] | ΔTm at 10 µM [2, 3] [°C] | TM Shift LIMK1 (K) [1] [K] | TM Shift LIMK2 (K) [2, 4] [K] | further results |
| --- | --- | --- | --- | --- | --- |
| COc1cc(Nc2ncc(F)c(Nc3ccc4c(n3)NC(=O)C(C)(C)O4)n2)cc(OC)c1OC [Tamatinib] | 5.5 | 3 | – | – | – |
| COc1cc2c(N3CCN(C(=O)Nc4ccc(OC(C)C)cc4)CC3)ncnc2cc1OCCCN1CCCCC1 [Tandutinib (MLN518), Tandutinib] | 0.8 | 0 | – | – | – |
| CNC(=O)c1cc(COc2nnc(Nc3ccc(Cl)cc3)c3ccoc23)ccn1 [Telatinib] | -1.4 | 3.3 | – | – | – |
| CO[C@H]1C[C@@H]2CC[C@@H](C)[C@@](O)(O2)C(=O)C(=O)N2CCCC[C@H]2C(=O)O[C@H]([C@H](C)C[C@@H]2CC[C@@H](OC(=O)C(C)(CO)CO)[C@H](OC)C2)CC(=O)[C@H](C)/C=C(\C)[C@@H](O)[C@@H](OC)C(=O)[C@H](C)C[C@H](C)/C=C/C=C/C=C/1C [Temsirolimus (CCI-779, NSC 683864), Temsirolimus] | -0.7 | 0 | – | – | – |
| O=C(NCc1ccccc1)c1csc(Nc2ccncn2)n1 [Thiazovivin] | – | – | 1.1 | 1.0 | – |
| O=c1sn(-c2cccc3ccccc23)c(=O)n1Cc1ccccc1 [Tideglusib] | -0.5 | 3.9 | – | – | – |
| COc1ccc2cc(-c3nc(-c4ccc([S+](C)[O-])cc4)[nH]c3-c3ccncc3)ccc2c1 (stereo not shown) [Tie2 kinase inhibitor] | – | – | 1.3 | 1.4 | – |
| O=C1NC(=O)[C@@H](c2cn3c4c(cccc24)CCC3)[C@@H]1c1c[nH]c2ccccc12 [Tivantinib] | 0 | 0.6 | – | – | – |
| COc1cc2nccc(Oc3ccc(NC(=O)Nc4cc(C)on4)c(Cl)c3)c2cc1OC [Tivozanib (AV-951), Tivozanib] | 1.1 | 1.5 | – | – | – |
| C[C@@H]1CCN(C(=O)CC#N)C[C@@H]1N(C)c1ncnc2[nH]ccc12 [Tofacitinib (CP-690550) Citrate, Tofacitinib] | -0.4 | 3.1 | – | – | – |
| CCC(=O)N1CCN(c2ccc(-n3c(=O)ccc4cnc5ccc(-c6cnc7ccccc7c6)cc5c43)cc2C(F)(F)F)CC1 [Torin 1] | -0.2 | 3.1 | – | – | – |
| Nc1ccc(-c2ccc3ncc4ccc(=O)n(-c5cccc(C(F)(F)F)c5)c4c3c2)cn1 [Torin 2] | – | – | -1.1 | -0.7 | – |
| CC(=O)Nc1cccc(-n2c(=O)n(C3CC3)c(=O)c3c(Nc4ccc(I)cc4F)n(C)c(=O)c(C)c32)c1 [Trametinib (GSK1120212), Trametinib] | -0.2 | 0 | – | – | – |
| CC(C)(C)c1cc(C=C(C#N)C#N)cc(C(C)(C)C)c1O [Tyrphostin 9] | – | – | 3.5 | 6.3 | – |
| CC(C)(C)c1cc(/C=C(\C#N)C(N)=S)cc(C(C)(C)C)c1O [Tyrphostin AG 879] | 0.1 | 1.2 | – | – | – |
| COc1cc2ncc(-c3ccccc3)nc2cc1OC [Tyrphostin AG 1296] | – | – | 0.0 | -1.3 | – |
| CCO.N#CC(=C(/N)Sc1ccccc1N)/C(C#N)=C(\N)Sc1ccccc1N [U0126-EtOH] | – | – | -1.1 | 2.4 | – |
| CN[C@@H]1C[C@H]2O[C@@](C)([C@@H]1OC)n1c3ccccc3c3c4c(c5c6ccccc6n2c5c31)C(=O)N[C@H]4O [UCN-01] | – | – | 1.2 | 0.7 | – |
| CS(=O)(=O)c1ccc(-c2cnc(N)c(C(=O)Nc3ccccc3)n2)cc1 [VE-821] | 0.8 | 1.5 | – | – | – |

Further lines, with some results ahead:

| ΔTm at 10 µM [1] [°C] | ΔTm at 10 µM [2, 3] [°C] | TM Shift LIMK1 (K) [1] [K] | TM Shift LIMK2 (K) [2, 4] [K] | SMILES | further results |
| --- | --- | --- | --- | --- | --- |
| -0.4 | 0.2 | – | – | Cn1cc(-c2ccc3nnc(Sc4ccc5ncccc5c4)n3n2)cn1 [SGX-523] | – |
| – | – | 0.7 | 0.7 | N#C/C(=C(/N)Sc1ccc(N)cc1)c1ccccc1C(F)(F)F [SL-327] | – |
| – | – | -0.2 | -0.4 | O=C1NC(=O)/C(=C/c2cccc(C(F)(F)F)c2)S1 [SMI-4a] | – |
| 1 | 2.1 | – | – | Oc1c2ccccc2c2c3c(cccc13)N=N2 [SP600125] | – |
| 1.4 | -0.2 | – | – | Cc1[nH]c(/C=C2\C(=O)Nc3ccc(S(=O)(=O)N(C)c4cccc(Cl)c4)cc32)c(C)c1C(=O)N1CCN(C)CC1 [SU11274] | – |
| -1.1 | 0 | – | – | CC(C)(O)CC(=O)NCCn1ccc2ncnc(Nc3ccc(Oc4cccc(C(F)(F)F)c4)c(Cl)c3)c21 [TAK-285] | – |
| – | – | 1.3 | 3.2 | N#Cc1c(Oc2ccc(F)c(NC(=O)Cc3cccc(C(F)(F)F)c3)c2)ccc2nc(NC(=O)C3CC3)sc12 [TAK-632] | – |
| 0.4 | 2.6 | – | – | CCc1nc(-c2cccc(C)c2)c(-c2ccnc(NC(=O)c3ccccc3)c2)s1 [TAK-715] | – |
| -0.5 | 0.3 | – | – | Cn1c(=O)c(F)c(Nc2ccc(I)cc2F)c2c(=O)n(C[C@@H](O)CO)cnc21 [TAK-733] | – |
| 3.7 | 0.3 | – | – | CCS(=O)(=O)c1cccc(-c2cc(C(=O)NC3CCN(C)CC3)c(C)c3[nH]c4ncc(C)cc4c23)c1 [TAK-901] | – |
| – | – | -1.0 | -1.2 | CCN1/C(=C/C(C)=O)Sc2ccc(OC)cc21 [TG003] | – |
| – | – | 1.4 | 0.7 | Nc1nc(N)c2nc(-c3cccc(O)c3)cnc2n1 [TG100713] | – |
| – | – | 2.4 | 3.1 | Cc1cnc(Nc2ccc(N3CCN(C)CC3)cc2)nc1Nc1cccc(S(=O)(=O)NC(C)(C)C)c1 [TG101209] | – |
| – | – | 0.1 | 0.0 | Cc1cc(C(C)Nc2ccccc2)c2nc(N3CCOCC3)cc(=O)n2c1 (stereo not shown) [TGX-221] | – |
| – | – | 0.5 | -1.2 | Cc1ccccc1CN1C(=O)C2=C(CCN(Cc3ccccc3)C2)N2CCN=C12 [TIC10] | – |
| – | – | 5.2 | 4.1 | Nc1cccc(-c2cc3c(Oc4cccc(O)c4)ncnc3[nH]2)c1 [TWS119] | – |
| -0.5 | 0.5 | – | – | CNCc1ccc(-c2cc(-c3nc(-c4ccc(S(=O)(=O)C(C)C)cc4)cnc3N)on2)cc1 [VE-822] | – |

Source: paper PMC6835155, “Lessons from LIMK1 enzymology and their impact on inhibitor design” (Biochemical Journal, 2019)
